Organism: Rattus norvegicus
Experiment: Open TG-GATES - Regimen: Single
Format: toxicity, organism-based, Sprague-Dawley
Set-up: regimen Single, gender Male, age 6 weeks
Conditions: in vivo, po, route gavage; for APTT / Bas / Eos / Fbg / Hb / Ht / Lym / MCH / MCHC / MCV / Mono / Neu / PT / Plat / RBC / Ret / WBC: tissue Blood; for KIDNEY_L / KIDNEY_R / KIDNEY_TOTAL: tissue Kidney; for LIVER: tissue Liver; for A/G / ALP / ALT / AST / BUN / CRE / Ca / Cl / DBIL / GLC / IP / K / LDH / Na / PL / RALB / TBIL / TC / TG / TP / gamma-GTP: tissue Plasma
[1] = 30 mg/kg, 3 h, dose level Middle
[2] = 30 mg/kg, 6 h, dose level Middle
[3] = 30 mg/kg, 9 h, dose level Middle
[4] = 30 mg/kg, 24 h, dose level Middle
[5] = 100 mg/kg, 3 h, dose level High
[6] = 100 mg/kg, 6 h, dose level High
[7] = 100 mg/kg, 9 h, dose level High
[8] = 100 mg/kg, 24 h, dose level High

## CC1=C(/C=C/C(C)=C/C=C/C(C)=C/CO)C(C)(C)CCC1 [RETINOL]
[1]
  TERMINAL_BW: 204 g
  APTT: 21.5 s
  Bas: 0%
  Eos: 1.2%
  Fbg: 295.2 mg/dL
  Hb: 13.2 g/dL
  Ht: 38.6%
  Lym: 77.6%
  MCH: 21.6 pg
  MCHC: 34.1%
  MCV: 63.4 fL
  Mono: 3%
  Neu: 17.6%
  PT: 15.9 s
  Plat: 124.8 x10_4/uL
  RBC: 609.8 x10_4/ul
  Ret: 8.3%
  WBC: 84.2 x10_2/uL
  KIDNEY_L: 0.9 g
  KIDNEY_R: 0.9 g
  KIDNEY_TOTAL: 1.8 g
  LIVER: 9.3 g
  A/G: 1.3
  ALP: 1939.2 IU/L
  ALT: 48.2 IU/L
  AST: 80 IU/L
  BUN: 13.4 mg/dL
  CRE: 0.1 mg/dL
  Ca: 11.3 mg/dL
  Cl: 106.2 meq/L
  DBIL: 0 mg/dL
  GLC: 176.4 mg/dL
  IP: 9 mg/dL
  K: 4.2 meq/L
  LDH: 231 IU/L
  Na: 141.2 meq/L
  PL: 165.4 mg/dL
  RALB: 3.1 g/dL
  TBIL: 0.004 mg/dL
  TC: 83.2 mg/dL
  TG: 153.8 mg/dL
  TP: 5.7 g/dL
  gamma-GTP: 3.6 IU/L
[2]
  TERMINAL_BW: 195.5 g
  APTT: 21.5 s
  Bas: 0%
  Eos: 0.8%
  Fbg: 302.4 mg/dL
  Hb: 13.4 g/dL
  Ht: 38.7%
  Lym: 77.8%
  MCH: 21.1 pg
  MCHC: 34.5%
  MCV: 61.2 fL
  Mono: 2.8%
  Neu: 17.8%
  PT: 15.5 s
  Plat: 119.2 x10_4/uL
  RBC: 633.8 x10_4/ul
  Ret: 7.3%
  WBC: 101.4 x10_2/uL
  KIDNEY_L: 0.9 g
  KIDNEY_R: 0.9 g
  KIDNEY_TOTAL: 1.8 g
  LIVER: 8.2 g
  A/G: 1.2
  ALP: 1586.8 IU/L
  ALT: 36.2 IU/L
  AST: 72.2 IU/L
  BUN: 8.8 mg/dL
  CRE: 0.1 mg/dL
  Ca: 10.8 mg/dL
  Cl: 107.6 meq/L
  DBIL: 0.004 mg/dL
  GLC: 176.8 mg/dL
  IP: 9.8 mg/dL
  K: 4.4 meq/L
  LDH: 224.8 IU/L
  Na: 142 meq/L
  PL: 146.2 mg/dL
  RALB: 3.1 g/dL
  TBIL: 0.01 mg/dL
  TC: 74.6 mg/dL
  TG: 119.6 mg/dL
  TP: 5.6 g/dL
  gamma-GTP: 1 IU/L
[3]
  TERMINAL_BW: 195.6 g
  APTT: 21.7 s
  Bas: 0%
  Eos: 1%
  Fbg: 317 mg/dL
  Hb: 13.3 g/dL
  Ht: 38.5%
  Lym: 75.2%
  MCH: 21.3 pg
  MCHC: 34.5%
  MCV: 61.8 fL
  Mono: 2.8%
  Neu: 21%
  PT: 15.5 s
  Plat: 115.9 x10_4/uL
  RBC: 623.4 x10_4/ul
  Ret: 7.7%
  WBC: 94.3 x10_2/uL
  KIDNEY_L: 0.9 g
  KIDNEY_R: 0.9 g
  KIDNEY_TOTAL: 1.8 g
  LIVER: 8.3 g
  A/G: 1.3
  ALP: 1640.4 IU/L
  ALT: 33 IU/L
  AST: 67.4 IU/L
  BUN: 10 mg/dL
  CRE: 0.2 mg/dL
  Ca: 11 mg/dL
  Cl: 106 meq/L
  DBIL: 0.008 mg/dL
  GLC: 181 mg/dL
  IP: 11.1 mg/dL
  K: 4.2 meq/L
  LDH: 253.4 IU/L
  Na: 141.2 meq/L
  PL: 136 mg/dL
  RALB: 3.1 g/dL
  TBIL: 0.014 mg/dL
  TC: 72 mg/dL
  TG: 82.6 mg/dL
  TP: 5.5 g/dL
  gamma-GTP: 1 IU/L
[4]
  TERMINAL_BW: 208 g
  APTT: 21.8 s
  Bas: 0%
  Eos: 0.6%
  Fbg: 303.2 mg/dL
  Hb: 13.1 g/dL
  Ht: 38.6%
  Lym: 79.4%
  MCH: 21.5 pg
  MCHC: 34.1%
  MCV: 63.1 fL
  Mono: 3%
  Neu: 16.2%
  PT: 15.9 s
  Plat: 124 x10_4/uL
  RBC: 612.6 x10_4/ul
  Ret: 7.8%
  WBC: 76.3 x10_2/uL
  KIDNEY_L: 0.9 g
  KIDNEY_R: 0.9 g
  KIDNEY_TOTAL: 1.9 g
  LIVER: 10.1 g
  A/G: 1.4
  ALP: 1811.2 IU/L
  ALT: 42.6 IU/L
  AST: 75.8 IU/L
  BUN: 16.6 mg/dL
  CRE: 0.2 mg/dL
  Ca: 10.8 mg/dL
  Cl: 107.2 meq/L
  DBIL: 0.002 mg/dL
  GLC: 193 mg/dL
  IP: 7.2 mg/dL
  K: 4.2 meq/L
  LDH: 242.4 IU/L
  Na: 141.6 meq/L
  PL: 148.2 mg/dL
  RALB: 3.2 g/dL
  TBIL: 0.006 mg/dL
  TC: 74.2 mg/dL
  TG: 114 mg/dL
  TP: 5.6 g/dL
  gamma-GTP: 1.2 IU/L
[5]
  TERMINAL_BW: 201.1 g
  APTT: 21.6 s
  Bas: 0%
  Eos: 1%
  Fbg: 312.4 mg/dL
  Hb: 13.3 g/dL
  Ht: 38.7%
  Lym: 77.2%
  MCH: 21.4 pg
  MCHC: 34.5%
  MCV: 62 fL
  Mono: 2.6%
  Neu: 19%
  PT: 15.7 s
  Plat: 117.7 x10_4/uL
  RBC: 625.8 x10_4/ul
  Ret: 8%
  WBC: 79.7 x10_2/uL
  KIDNEY_L: 0.9 g
  KIDNEY_R: 0.9 g
  KIDNEY_TOTAL: 1.8 g
  LIVER: 9.1 g
  A/G: 1.4
  ALP: 1910.2 IU/L
  ALT: 46 IU/L
  AST: 77 IU/L
  BUN: 13.6 mg/dL
  CRE: 0.2 mg/dL
  Ca: 11 mg/dL
  Cl: 106.2 meq/L
  DBIL: 0 mg/dL
  GLC: 182 mg/dL
  IP: 9.4 mg/dL
  K: 4 meq/L
  LDH: 219.2 IU/L
  Na: 141.2 meq/L
  PL: 157.4 mg/dL
  RALB: 3.2 g/dL
  TBIL: 0.006 mg/dL
  TC: 77 mg/dL
  TG: 153 mg/dL
  TP: 5.6 g/dL
  gamma-GTP: 1.6 IU/L
[6]
  TERMINAL_BW: 205.2 g
  APTT: 20.3 s
  Bas: 0%
  Eos: 1%
  Fbg: 292.8 mg/dL
  Hb: 13.2 g/dL
  Ht: 38.6%
  Lym: 73.8%
  MCH: 21.1 pg
  MCHC: 34.2%
  MCV: 61.8 fL
  Mono: 4.8%
  Neu: 19.8%
  PT: 15 s
  Plat: 120.3 x10_4/uL
  RBC: 625.6 x10_4/ul
  Ret: 7.8%
  WBC: 110 x10_2/uL
  KIDNEY_L: 0.9 g
  KIDNEY_R: 0.9 g
  KIDNEY_TOTAL: 1.8 g
  LIVER: 9 g
  A/G: 1.3
  ALP: 1660.6 IU/L
  ALT: 37.6 IU/L
  AST: 74 IU/L
  BUN: 10.6 mg/dL
  CRE: 0.1 mg/dL
  Ca: 11.3 mg/dL
  Cl: 105.8 meq/L
  DBIL: 0.006 mg/dL
  GLC: 190.4 mg/dL
  IP: 10.6 mg/dL
  K: 4.3 meq/L
  LDH: 212.4 IU/L
  Na: 141.8 meq/L
  PL: 147.8 mg/dL
  RALB: 3.1 g/dL
  TBIL: 0.016 mg/dL
  TC: 71.8 mg/dL
  TG: 118 mg/dL
  TP: 5.4 g/dL
  gamma-GTP: 1 IU/L
[7]
  TERMINAL_BW: 198.4 g
  APTT: 21.5 s
  Bas: 0%
  Eos: 0.8%
  Fbg: 288.4 mg/dL
  Hb: 12.8 g/dL
  Ht: 36.9%
  Lym: 72.4%
  MCH: 21.3 pg
  MCHC: 34.7%
  MCV: 61.4 fL
  Mono: 3.2%
  Neu: 22.6%
  PT: 15.5 s
  Plat: 124.3 x10_4/uL
  RBC: 601 x10_4/ul
  Ret: 7.6%
  WBC: 96.3 x10_2/uL
  KIDNEY_L: 0.9 g
  KIDNEY_R: 0.9 g
  KIDNEY_TOTAL: 1.9 g
  LIVER: 8.8 g
  A/G: 1.4
  ALP: 1745.2 IU/L
  ALT: 35.2 IU/L
  AST: 69.2 IU/L
  BUN: 9.6 mg/dL
  CRE: 0.1 mg/dL
  Ca: 11 mg/dL
  Cl: 106.4 meq/L
  DBIL: 0.014 mg/dL
  GLC: 179.6 mg/dL
  IP: 10.7 mg/dL
  K: 4.3 meq/L
  LDH: 219.6 IU/L
  Na: 141.2 meq/L
  PL: 129.2 mg/dL
  RALB: 3.1 g/dL
  TBIL: 0.016 mg/dL
  TC: 65.6 mg/dL
  TG: 91.2 mg/dL
  TP: 5.3 g/dL
  gamma-GTP: 1 IU/L
[8]
  TERMINAL_BW: 207.3 g
  APTT: 23.2 s
  Bas: 0%
  Eos: 0.8%
  Fbg: 303.6 mg/dL
  Hb: 13.3 g/dL
  Ht: 38.7%
  Lym: 79.2%
  MCH: 21.2 pg
  MCHC: 34.3%
  MCV: 61.9 fL
  Mono: 2.2%
  Neu: 16.8%
  PT: 16 s
  Plat: 117.6 x10_4/uL
  RBC: 627 x10_4/ul
  Ret: 7.3%
  WBC: 93.1 x10_2/uL
  KIDNEY_L: 0.9 g
  KIDNEY_R: 0.9 g
  KIDNEY_TOTAL: 1.8 g
  LIVER: 9.6 g
  A/G: 1.2
  ALP: 1815.8 IU/L
  ALT: 47.2 IU/L
  AST: 79 IU/L
  BUN: 14.2 mg/dL
  CRE: 0.2 mg/dL
  Ca: 10.8 mg/dL
  Cl: 106.2 meq/L
  DBIL: 0.004 mg/dL
  GLC: 193.4 mg/dL
  IP: 7.4 mg/dL
  K: 4 meq/L
  LDH: 242.4 IU/L
  Na: 140.2 meq/L
  PL: 144 mg/dL
  RALB: 3 g/dL
  TBIL: 0.006 mg/dL
  TC: 68.8 mg/dL
  TG: 155.2 mg/dL
  TP: 5.5 g/dL
  gamma-GTP: 1.8 IU/L

Source: ChEMBL document CHEMBL3885861, “Open TG-GATES”
